Measurements: patent US20110172147A1, “NEUROPEPTIDE-2 RECEPTOR (Y-2R) AGONISTS” (priority 2009, published 2011)

Tests used:
Format in all cases: cell-based
Y1R = biological target: T1, Y1R (Homo sapiens, UniProt P25929); test: CaFlux Assay (FLIPR), Y1R
T1 sequence (P25929 1-384): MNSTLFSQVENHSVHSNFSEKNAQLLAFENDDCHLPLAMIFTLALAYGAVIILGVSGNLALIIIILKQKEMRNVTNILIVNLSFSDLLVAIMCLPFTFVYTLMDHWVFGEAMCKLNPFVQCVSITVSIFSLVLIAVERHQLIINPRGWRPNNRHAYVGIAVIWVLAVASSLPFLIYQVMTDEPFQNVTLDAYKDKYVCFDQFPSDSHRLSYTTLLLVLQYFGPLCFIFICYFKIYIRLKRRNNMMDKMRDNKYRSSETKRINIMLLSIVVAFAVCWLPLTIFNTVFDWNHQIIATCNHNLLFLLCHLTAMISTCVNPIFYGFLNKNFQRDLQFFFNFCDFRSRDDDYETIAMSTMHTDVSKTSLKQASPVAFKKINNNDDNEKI

hNPY2R [1] = biological target: T2, hNPY2R (Homo sapiens, UniProt P49146); test: cAMP Agonist Assay, HEK293/hNPY2R; design: expressed in transfected cells; host or cells: HEK293/hNPY2R (G418 selection)
T2 sequence (P49146 1-381): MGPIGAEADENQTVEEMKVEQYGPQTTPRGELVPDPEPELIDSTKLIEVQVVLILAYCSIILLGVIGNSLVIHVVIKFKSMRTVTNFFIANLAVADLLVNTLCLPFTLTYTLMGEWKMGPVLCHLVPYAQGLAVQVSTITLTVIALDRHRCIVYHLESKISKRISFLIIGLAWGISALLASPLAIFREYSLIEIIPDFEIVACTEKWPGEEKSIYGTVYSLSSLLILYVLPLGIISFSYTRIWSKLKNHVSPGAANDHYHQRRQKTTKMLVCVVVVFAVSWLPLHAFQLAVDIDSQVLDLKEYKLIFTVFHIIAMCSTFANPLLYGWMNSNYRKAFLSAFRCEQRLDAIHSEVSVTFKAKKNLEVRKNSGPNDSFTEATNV
Procedure: In this example, the following materials were used: 384-well plate; Tropix cAMP-Screen Kit; cAMP ELISA System (Applied Biosystems, cat. #T1505; CS 20000); Forskolin (Calbiochem cat. # 344270); cells: HEK293/hNPY2R; growth medium: Dulbecco's modified eagle medium (D-MEM, Gibco); 10% Fetal bovine serum (FBS, Gibco), heat-inactivated; 1% Penicillin/Streptomycin (Pen 10000 unit/mL: Strep […], Gibco); […] G418 (Geneticin, Gibco cat. # 11811-031); and plating medium: DMEM/F12 w/o phenol red (Gibco); 10% FBS (Gibco, cat. # 10082-147), heat-inactivated; 1% Penicillin/Streptomycin (Gibco, cat. # 15140-122); […] G418 (Geneticin, Gibco, cat. # 11811-031).
On the first day, medium was discarded, and the monolayer cells were washed with 10 mL PBS per flask (T225). After decanting with PBS, 5 mL VERSENE (Gibco, cat #1504006) was used to dislodge the cells (5 min @37 C). The flask was gently tapped and the cell suspension was pooled. Each flask was rinsed with 10 mL plating medium and centrifuged at 1000 rpm for 5 min. The suspension was pooled and counted. The suspension was resuspended in plating medium at a density of 2.0×10^5 cells/mL for HEK293/hNPY2R. 50 microliters of cells (HEK293/hNPY2R-10,000 cells/well) were transferred into the 384-well plate using Multi-drop dispenser. The plates were incubated at 37° C. overnight. On the second day, the cells were checked for 75-85% confluence. The media and reagents were allowed to come to room temperature. Before the dilutions were prepared, the stock solution of stimulating compound in dimethyl sulphoxide (DMSO, Sigma, cat #D2650) was allowed to warm up to 32 C for 5-10 min. The dilutions were prepared in DMEM/F12 with 0.5 mM 3-Isobutyl-1-methylxanthine (IBMX, Calbiochem, cat #410957) and 0.5 mg/mL BSA. The final DMSO concentration in the stimulation medium was 1.1% with Forskolin concentration of 5 μM. The cell medium was tapped off with a gentle inversion of the cell plate on a paper towel. 50 μL of stimulation medium was placed per well (each concentration done in four replicates). The plates were incubated at room temperature for 30 min, and the cells were checked under a microscope for toxicity. After 30 minutes of treatment, the stimulation media was discarded and […] of Assay Lysis Buffer (provided in the Tropix kit) was added. The plates were incubated for 45 min @ 37° C. 20 μL of the lysate was transferred from stimulation plates into the pre-coated antibody plates (384-well) from the Tropix kit. 10 μL of AP conjugate and 20 μL of anti-cAMP antibody was added. The plates were incubated at room temperature while shaking for 1 hour. The plates were then washed 5 times with Wash Buffer, 70 μL per well for each wash. The plates were tapped to dry. 30 μL/well of CSPD/Saphire-II RTU substrate/enhancer solution was added and incubated for 45 min @ RT (shake). Signal for 1 sec/well in a Luminometer. (VICTOR-V) was measured.

Y5R = biological target: T3, Y5R (Homo sapiens, UniProt Q15761); test: CaFlux Assay (FLIPR), Y5R
T3 sequence (Q15761 1-445): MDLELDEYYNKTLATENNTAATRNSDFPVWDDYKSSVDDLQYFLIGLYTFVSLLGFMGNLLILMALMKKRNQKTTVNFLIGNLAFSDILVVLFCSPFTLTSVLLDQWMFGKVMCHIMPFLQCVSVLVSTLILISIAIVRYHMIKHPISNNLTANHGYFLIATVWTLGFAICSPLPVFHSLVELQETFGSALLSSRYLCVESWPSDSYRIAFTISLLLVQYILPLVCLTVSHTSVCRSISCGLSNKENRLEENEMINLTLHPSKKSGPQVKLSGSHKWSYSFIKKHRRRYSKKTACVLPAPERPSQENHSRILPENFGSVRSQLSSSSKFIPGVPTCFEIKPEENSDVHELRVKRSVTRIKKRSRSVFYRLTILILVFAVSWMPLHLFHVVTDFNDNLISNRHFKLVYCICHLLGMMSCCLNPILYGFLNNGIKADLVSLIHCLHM

hNPY2R [2] = biological target: T2, hNPY2R; test: CaFlux Assay (FLIPR), Y2R; design: expressed in transfected cells; host or cells: HEK-293 stably transfected with G protein chimera Gαqi9
Procedure: HEK-293 cells were stably transfected with the G protein chimera Gαqi9 and the hygromycin-B resistance gene were further transfected with the human NPY2 receptor and G418 antibiotic selection. Following selection in both hygromycin-B and G418, individual clones were assayed for their response to PYY. The transfected cells were cultured in DMEM medium supplemented with 10% fetal bovine serum, 50 μg/mL hygromycin-B, 2 mM glutamine, 100 U/mL penicillin, 100 μg/mL streptomycin and 250 μg/mL G418. Cells are harvested with trypsin-EDTA and counted using ViaCount reagent. The cell suspension volume is adjusted to 4.8×10^5 cells/mL with complete growth media. Aliquots of 25 μL are dispensed into 384 well Poly-D Lysine coated black/clear microplates (Falcon) and the microplates were placed in a 37° C. CO2 incubator overnight. Loading Buffer (Calcium-3 Assay Kit, Molecular Devices) was prepared by dissolving the contents of one vial (Express Kit) into […] Hank's Balanced Salt Solution containing 20 mM HEPES and 5 mM probenecid. Aliquots of 25 μL of diluted dye were dispensed into the cell plates and the plates are then incubated for 1 hour at 37° C. During the incubation, test compounds were prepared at 3.5× the desired concentration in HBSS (20 mM HEPES)/0.05% BSA/1% DMSO and transferred to a 384-well plate for use on FLIPR. After incubation, both the cell and compound plates were brought to the FLIPR and 20 μL of the diluted compounds were transferred to the cell plates by the FLIPR. During the assay, fluorescence readings were taken simultaneously from all 384 wells of the cell plate every 1.5 seconds. Five readings were taken to establish a stable baseline, and then 20 μL of sample was rapidly (30 μL/sec) and simultaneously added to each well of the cell plate. The fluorescence was continuously monitored before, during and after sample addition for a total elapsed time of 100 seconds. Responses (increase in peak fluorescence) in each well following addition were determined. The initial fluorescence reading from each well, prior to ligand stimulation, was used as a zero baseline value for the data from that well. The responses are expressed as % of maximal response of the positive control.

Y4R = Y4R (Homo sapiens, UniProt P50391); test: CaFlux Assay (FLIPR), Y4R
Sequence of Y4R (P50391 whole entry): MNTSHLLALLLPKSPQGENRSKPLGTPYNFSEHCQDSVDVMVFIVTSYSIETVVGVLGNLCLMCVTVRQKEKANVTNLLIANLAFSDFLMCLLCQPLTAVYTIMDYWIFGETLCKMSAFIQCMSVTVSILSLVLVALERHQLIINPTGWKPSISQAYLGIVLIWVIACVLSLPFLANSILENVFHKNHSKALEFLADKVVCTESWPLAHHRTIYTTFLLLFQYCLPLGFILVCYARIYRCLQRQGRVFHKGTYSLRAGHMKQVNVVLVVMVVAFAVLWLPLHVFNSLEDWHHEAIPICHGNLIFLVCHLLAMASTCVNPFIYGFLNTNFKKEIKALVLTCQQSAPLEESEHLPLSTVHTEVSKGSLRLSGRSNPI

SMILES | EC50 (Y1R) | EC50 (hNPY2R [1]) | EC50 (Y5R) | EC50 (hNPY2R [2]) | EC50 (Y4R)
CCCCCCCCCCCCCCCCCCCC(=O)N[C@@H](CCC(=O)N[C@@H](CCC(=O)NCCCC[C@H](NC(=O)[C@@H](NC(=O)COCCOCCOC)[C@@H](C)CC)C(=O)N1CCN(c2ccc3ncn(CC(=O)N[C@@H](CCCNC(=N)N)C(=O)N[C@@H](Cc4c[nH]cn4)C(=O)N[C@@H](Cc4ccc(O)cc4)C(=O)N[C@@H](CC(C)C)C(=O)N[C@@H](CC(N)=O)C(=O)N[C@@H](Cc4c[nH]c5ccccc45)C(=O)N[C@H](C(=O)N[C@H](C(=O)N[C@@H](CCCNC(=N)N)C(=O)N[C@@H](CCC(N)=O)C(=O)N(C)[C@@H](CCCNC(=N)N)C(=O)N[C@@H](Cc4ccc(O)cc4)C(N)=O)[C@@H](C)O)C(C)C)c(=O)c3c2)CC1)C(=O)O)C(=O)O [Example 22] | > 6000 nM | 0.065 nM | 1510 nM | 0.298 nM | > 6000 nM
CCCCCCCCCCCCCCCC(=O)NCCOCCNC(=O)CCC(=O)NCCCC[C@H](NC(=O)[C@@H](NC(=O)COCCOCCOCCOCCOCCOC)[C@@H](C)CC)C(=O)N1CCN(c2ccc3ncn(CC(=O)N[C@@H](CCCNC(=N)N)C(=O)N[C@@H](Cc4c[nH]cn4)C(=O)N[C@@H](Cc4ccc(O)cc4)C(=O)N[C@@H](CC(C)C)C(=O)N[C@@H](CC(N)=O)C(=O)N[C@@H](Cc4c[nH]c5ccccc45)C(=O)N[C@H](C(=O)N[C@H](C(=O)N[C@@H](CCCNC(=N)N)C(=O)N[C@@H](CCC(N)=O)C(=O)N(C)[C@@H](CCCNC(=N)N)C(=O)N[C@@H](Cc4ccc(O)cc4)C(N)=O)[C@@H](C)O)C(C)C)c(=O)c3c2)CC1 [Example 12] | > 5000 nM | 0.09 nM | 527 nM | 0.097 nM | > 5000 nM
CC[C@H](C)[C@H](NC(=O)CCCCCNC(=O)CCOCCOCCOCCOCCOCCOCCOCCOC)C(=O)N[C@@H](CCCCN)C(=O)N1CCN(c2ccc3ncn(CC(=O)N[C@@H](CCCNC(=N)N)C(=O)N[C@@H](Cc4c[nH]cn4)C(=O)N[C@@H](Cc4ccc(O)cc4)C(=O)N[C@@H](CC(C)C)C(=O)N[C@@H](CC(N)=O)C(=O)N[C@@H](Cc4c[nH]c5ccccc45)C(=O)N[C@H](C(=O)N[C@H](C(=O)N[C@@H](CCCNC(=N)N)C(=O)N[C@@H](CCC(N)=O)C(=O)N(C)[C@@H](CCCNC(=N)N)C(=O)N[C@@H](Cc4ccc(O)cc4)C(N)=O)[C@@H](C)O)C(C)C)c(=O)c3c2)CC1 [Example 17] | > 6000 nM | 1.4 nM | > 6000 nM | 0.479 nM | > 6000 nM
CCCCCCCCCCCCCCCC(=O)NCCCCCC(=O)N[C@H](C(=O)N[C@@H](CCCCNC(=O)CCOCCOCCOCCOCCOCCOCCOCCOCCOCCOCCOCCOCCOCCOCCOCCOC)C(=O)N1CCN(c2ccc3ncn(CC(=O)N[C@@H](CCCNC(N)=O)C(=O)N[C@@H](Cc4c[nH]cn4)C(=O)N[C@@H](Cc4ccc(O)cc4)C(=O)N[C@@H](CC(C)C)C(=O)N[C@@H](CC(N)=O)C(=O)N[C@@H](Cc4c[nH]c5ccccc45)C(=O)N[C@H](C(=O)N[C@H](C(=O)N[C@@H](CCCNC(=N)N)C(=O)N[C@@H](CCC(N)=O)C(=O)N(C)[C@@H](CCCNC(=N)N)C(=O)N[C@@H](Cc4ccc(O)cc4)C(N)=O)[C@@H](C)O)C(C)C)c(=O)c3c2)CC1)[C@@H](C)CC [Example 32] | > 6000 nM | 0.23 nM | 4760 nM | 0.15 nM | > 6000 nM
CCCCCCCCCCCCCCCCCCCC(=O)N[C@@H](CCC(=O)N[C@@H](CCC(=O)NCCCC[C@H](NC(=O)[C@@H](NC(=O)CCOCCOCCOCCOCCOCCOCCOCCOC)[C@@H](C)CC)C(=O)N1CCN(c2ccc3ncn(CC(=O)N[C@@H](CCCNC(=N)N)C(=O)N[C@@H](Cc4c[nH]cn4)C(=O)N[C@@H](Cc4ccc(O)cc4)C(=O)N[C@@H](CC(C)C)C(=O)N[C@@H](CC(N)=O)C(=O)N[C@@H](Cc4c[nH]c5ccccc45)C(=O)N[C@H](C(=O)N[C@H](C(=O)N[C@@H](CCCNC(=N)N)C(=O)N[C@@H](CCC(N)=O)C(=O)N(C)[C@@H](CCCNC(=N)N)C(=O)N[C@@H](Cc4ccc(O)cc4)C(N)=O)[C@@H](C)O)C(C)C)c(=O)c3c2)CC1)C(=O)O)C(=O)O [Example 23] | > 9000 nM | 0.05 nM | 2210 nM | 0.295 nM | > 9000 nM
